ChEMBL document CHEMBL3885861, “Open TG-GATES”

Species on record: Rattus norvegicus
Assay: Open TG-GATES - Regimen: Daily Repeat
Type: toxicity, organism-based, Sprague-Dawley
Parameters: regimen Daily Repeat, gender Male, age 6 weeks
Conditions: in vivo, po, 1000 mg/kg, route gavage, dose level Middle; for APTT / Bas / Eos / Fbg / Hb / Ht / Lym / MCH / MCHC / MCV / Mono / Neu / PT / Plat / RBC / Ret / WBC: tissue Blood; for KIDNEY_L / KIDNEY_R / KIDNEY_TOTAL: tissue Kidney; for LIVER: tissue Liver; for A/G / ALP / ALT / AST / BUN / CRE / Ca / Cl / DBIL / GLC / IP / K / LDH / Na / PL / RALB / TBIL / TC / TG / TP / gamma-GTP: tissue Plasma

Structure (SMILES): COc1ccc(O)c(C(C)(C)C)c1.COc1ccc(O)cc1C(C)(C)C [BUTYLATED HYDROXYANISOLE]
- TERMINAL_BW (72 h, time 3 day): 219.1 g
- APTT (72 h, time 3 day): 16.1 s
- Bas (72 h, time 3 day): 0.3%
- Eos (72 h, time 3 day): 0.7%
- Fbg (72 h, time 3 day): 310.6 mg/dL
- Hb (72 h, time 3 day): 12.6 g/dL
- Ht (72 h, time 3 day): 36.7%
- Lym (72 h, time 3 day): 75.6%
- MCH (72 h, time 3 day): 20.5 pg
- MCHC (72 h, time 3 day): 34.3%
- MCV (72 h, time 3 day): 59.6 fL
- Mono (72 h, time 3 day): 3.1%
- Neu (72 h, time 3 day): 19.4%
- PT (72 h, time 3 day): 10.9 s
- Plat (72 h, time 3 day): 134.7 x10_4/uL
- RBC (72 h, time 3 day): 615.6 x10_4/ul
- Ret (72 h, time 3 day): 3.6%
- WBC (72 h, time 3 day): 130.3 x10_2/uL
- KIDNEY_L (72 h, time 3 day): 1 g
- KIDNEY_R (72 h, time 3 day): 0.9 g
- KIDNEY_TOTAL (72 h, time 3 day): 1.9 g
- LIVER (72 h, time 3 day): 15 g
- A/G (72 h, time 3 day): 0.8
- ALP (72 h, time 3 day): 1334 IU/L
- ALT (72 h, time 3 day): 44.6 IU/L
- AST (72 h, time 3 day): 65.6 IU/L
- BUN (72 h, time 3 day): 16 mg/dL
- CRE (72 h, time 3 day): 0.2 mg/dL
- Ca (72 h, time 3 day): 11.5 mg/dL
- Cl (72 h, time 3 day): 104.6 meq/L
- DBIL (72 h, time 3 day): 0.028 mg/dL
- GLC (72 h, time 3 day): 171.4 mg/dL
- IP (72 h, time 3 day): 7 mg/dL
- K (72 h, time 3 day): 3.9 meq/L
- LDH (72 h, time 3 day): 71.8 IU/L
- Na (72 h, time 3 day): 142.4 meq/L
- PL (72 h, time 3 day): 200.8 mg/dL
- RALB (72 h, time 3 day): 2.6 g/dL
- TBIL (72 h, time 3 day): 0.092 mg/dL
- TC (72 h, time 3 day): 115.2 mg/dL
- TG (72 h, time 3 day): 76.2 mg/dL
- TP (72 h, time 3 day): 5.9 g/dL
- gamma-GTP (72 h, time 3 day): 1.6 IU/L
- TERMINAL_BW ([…], time 7 day): 247 g
- TERMINAL_BW ([…], time 14 day): 309.8 g
- TERMINAL_BW ([…], time 28 day): 393.4 g
- APTT ([…], time 7 day): 16.2 s
- Bas ([…], time 7 day): 0.3%
- Eos ([…], time 7 day): 0.6%
- Fbg ([…], time 7 day): 341 mg/dL
- Hb ([…], time 7 day): 13.3 g/dL
- Ht ([…], time 7 day): 38.5%
- Lym ([…], time 7 day): 79%
- MCH ([…], time 7 day): 20.6 pg
- MCHC ([…], time 7 day): 34.5%
- MCV ([…], time 7 day): 59.7 fL
- Mono ([…], time 7 day): 2%
- Neu ([…], time 7 day): 17.1%
- PT ([…], time 7 day): 11.6 s
- Plat ([…], time 7 day): 156.6 x10_4/uL
- RBC ([…], time 7 day): 645.8 x10_4/ul
- Ret ([…], time 7 day): 5.7%
- WBC ([…], time 7 day): 119.3 x10_2/uL
- APTT ([…], time 14 day): 19.6 s
- Bas ([…], time 14 day): 0.3%
- Eos ([…], time 14 day): 0.7%
- Fbg ([…], time 14 day): 334.2 mg/dL
- Hb ([…], time 14 day): 13.6 g/dL
- Ht ([…], time 14 day): 39.6%
- Lym ([…], time 14 day): 76.3%
- MCH ([…], time 14 day): 19.9 pg
- MCHC ([…], time 14 day): 34.3%
- MCV ([…], time 14 day): 57.9 fL
- Mono ([…], time 14 day): 2.4%
- Neu ([…], time 14 day): 19.6%
- PT ([…], time 14 day): 11.8 s
- Plat ([…], time 14 day): 132.4 x10_4/uL
- RBC ([…], time 14 day): 684.8 x10_4/ul
- Ret ([…], time 14 day): 3.9%
- WBC ([…], time 14 day): 105.1 x10_2/uL
- APTT ([…], time 28 day): 20.3 s
- Bas ([…], time 28 day): 0.4%
- Eos ([…], time 28 day): 1%
- Fbg ([…], time 28 day): 290.2 mg/dL
- Hb ([…], time 28 day): 14.7 g/dL
- Ht ([…], time 28 day): 41.5%
- Lym ([…], time 28 day): 77.6%
- MCH ([…], time 28 day): 19.5 pg
- MCHC ([…], time 28 day): 35.4%
- MCV ([…], time 28 day): 55 fL
- Mono ([…], time 28 day): 1.8%
- Neu ([…], time 28 day): 18.4%
- PT ([…], time 28 day): 12.1 s
- Plat ([…], time 28 day): 119.1 x10_4/uL
- RBC ([…], time 28 day): 754.6 x10_4/ul
- Ret ([…], time 28 day): 2.2%
- WBC ([…], time 28 day): 117.9 x10_2/uL
- KIDNEY_L ([…], time 7 day): 1 g
- KIDNEY_R ([…], time 7 day): 1 g
- KIDNEY_TOTAL ([…], time 7 day): 2 g
- KIDNEY_L ([…], time 14 day): 1.2 g
- KIDNEY_R ([…], time 14 day): 1.1 g
- KIDNEY_TOTAL ([…], time 14 day): 2.3 g
- KIDNEY_L ([…], time 28 day): 1.3 g
- KIDNEY_R ([…], time 28 day): 1.3 g
- KIDNEY_TOTAL ([…], time 28 day): 2.6 g
- LIVER ([…], time 7 day): 13.6 g
- LIVER ([…], time 14 day): 18 g
- LIVER ([…], time 28 day): 20 g
- A/G ([…], time 7 day): 0.8
- ALP ([…], time 7 day): 1105 IU/L
- ALT ([…], time 7 day): 35.6 IU/L
- AST ([…], time 7 day): 56.8 IU/L
- BUN ([…], time 7 day): 16.4 mg/dL
- CRE ([…], time 7 day): 0.2 mg/dL
- Ca ([…], time 7 day): 11.3 mg/dL
- Cl ([…], time 7 day): 105.4 meq/L
- DBIL ([…], time 7 day): 0.024 mg/dL
- GLC ([…], time 7 day): 171.8 mg/dL
- IP ([…], time 7 day): 6.8 mg/dL
- K ([…], time 7 day): 3.7 meq/L
- LDH ([…], time 7 day): 62.8 IU/L
- Na ([…], time 7 day): 143 meq/L
- PL ([…], time 7 day): 188.2 mg/dL
- RALB ([…], time 7 day): 2.8 g/dL
- TBIL ([…], time 7 day): 0.054 mg/dL
- TC ([…], time 7 day): 103.4 mg/dL
- TG ([…], time 7 day): 144.4 mg/dL
- TP ([…], time 7 day): 6.4 g/dL
- gamma-GTP ([…], time 7 day): 1.2 IU/L
- A/G ([…], time 14 day): 0.7
- ALP ([…], time 14 day): 1071.8 IU/L
- ALT ([…], time 14 day): 36.8 IU/L
- AST ([…], time 14 day): 56.8 IU/L
- BUN ([…], time 14 day): 19 mg/dL
- CRE ([…], time 14 day): 0.2 mg/dL
- Ca ([…], time 14 day): 11.1 mg/dL
- Cl ([…], time 14 day): 105 meq/L
- DBIL ([…], time 14 day): 0.022 mg/dL
- GLC ([…], time 14 day): 169 mg/dL
- IP ([…], time 14 day): 5.9 mg/dL
- K ([…], time 14 day): 3.8 meq/L
- LDH ([…], time 14 day): 50 IU/L
- Na ([…], time 14 day): 143.6 meq/L
- PL ([…], time 14 day): 199.8 mg/dL
- RALB ([…], time 14 day): 2.8 g/dL
- TBIL ([…], time 14 day): 0.046 mg/dL
- TC ([…], time 14 day): 103 mg/dL
- TG ([…], time 14 day): 164.8 mg/dL
- TP ([…], time 14 day): 6.6 g/dL
- gamma-GTP ([…], time 14 day): 1.8 IU/L
- A/G ([…], time 28 day): 0.7
- ALP ([…], time 28 day): 853 IU/L
- ALT ([…], time 28 day): 35.6 IU/L
- AST ([…], time 28 day): 55.6 IU/L
- BUN ([…], time 28 day): 17.4 mg/dL
- CRE ([…], time 28 day): 0.3 mg/dL
- Ca ([…], time 28 day): 11.2 mg/dL
- Cl ([…], time 28 day): 104.4 meq/L
- DBIL ([…], time 28 day): 0.018 mg/dL
- GLC ([…], time 28 day): 183.8 mg/dL
- IP ([…], time 28 day): 5.8 mg/dL
- K ([…], time 28 day): 3.4 meq/L
- LDH ([…], time 28 day): 58.2 IU/L
- Na ([…], time 28 day): 145.2 meq/L
- PL ([…], time 28 day): 161 mg/dL
- RALB ([…], time 28 day): 2.7 g/dL
- TBIL ([…], time 28 day): 0.058 mg/dL
- TC ([…], time 28 day): 88.4 mg/dL
- TG ([…], time 28 day): 115.4 mg/dL
- TP ([…], time 28 day): 6.5 g/dL
- gamma-GTP ([…], time 28 day): 1.4 IU/L
